Reference: patent US9765087B2, “Benzimidazole derivatives” (ENANTA PHARMACEUTICALS, INC., priority 2009, dated 2017)
pEC50: −log10 of the molar value. Where two headings read alike, the source gives them in different places.

Test system: HCV 1b genotype replicon
Assay: HCV replicon assay (qRT-PCR or luciferase), genotype 1b
Type: cell-based
Conditions: Hepatitis C virus
Excerpt: HCV replicon cell lines (kindly provided by R. Bartenschlager) isolated from colonies as described by Lohman et. al. (Lohman et al. (1999) Science 285: 110-113, expressly incorporated by reference in its entirety) and used for all experiments. The HCV replicon has the nucleic acid sequence set forth in EMBL Accession No.: AJ242651, the coding sequence of which is from nucleotides 1801 to 8406.
The coding sequence of the published HCV replicon was synthesized and subsequently assembled in a modified plasmid pBR322 (Promega, Madison, Wis.) using standard molecular biology techniques. One replicon cell line (“SGR 11-7”) stably expresses HCV replicon RNA which consists of (i) the HCV 5′UTR fused to the first 12 amino acids of the capsid protein, (ii) the neomycin phosphotransferase gene (neo), (iii) the IRES from encephalomyocarditis virus (EMCV), and (iv) HCV […] to NSSB genes and the HCV 3′UTR. Another replicon cell line (“Huh-luc/neo-ET”) described by Vrolijk et. al. (Vrolijk et. al. (2003) Journal of Virological Methods 110:201-209, expressly incorporated by reference in its entirety) stably expresses HCV replicon RNA which consists of (i) the HCV 5′UTR fused to the first 12 amino acids of the capsid protein, (ii) the firefly luciferase reporter gene, (iii) the ubiquitin gene, (iv) the neomycin phosphotransferase gene (neo), (v) the IRES from encephalomyocarditis virus (EMCV), and (vi) HCV NS3 to NS5B genes that harbor cell culture adaptive mutations (E1202G, T1280I, K1846T) and the HCV 3′UTR.
These cell lines were maintained at 37° C., 5% CO2, 100% relative humidity in DMEM (Cat#11965-084, Invitrogen), with 10% fetal calf serum (“FCS”, Invitrogen), 1% non-essential amino acids (Invitrogen), 1% of Glutamax (Invitrogen), 1% of 100× penicillin/streptomycin (Cat#15140-122, Invitrogen) and Geneticin (Cat#10131-027, Invitrogen) at 0.75 mg/ml or 0.5 mg/ml for 11-7 and Huh-luc/neo-ET cells, respectively.
EC50 values of single agent compounds and combinations were determined by HCV RNA detection using quantitative RT-PCR, according to the manufacturer's instructions, with a TAQMAN® One-Step RT-PCR Master Mix Reagents Kit (Cat#AB 4309169, Applied Biosystems) on an ABI Model 7500 thermocycler. The TaqMan primers used for detecting and quantifying HCV RNA were obtained from Integrated DNA Technologies. HCV RNA was normalized to GAPDH RNA levels in drug-treated cells, which is detected and quantified using the Human GAPDH Endogenous Control Mix (Applied Biosystems, AB 4310884E). Total cellular RNA is purified from 96-well plates using the RNAqueous 96 kit (Ambion, Cat# AM1812). Chemical agent cytotoxicity is evaluated using an MTS assay according to the manufacturer's directions (Promega).
Since clinical drug resistance often develops in viral infections following single agent therapies, there is a need to assess the additive, antagonistic, or synergistic properties of combination therapies. We used the HCV replicon system to assess the potential use of the compound of the present invention or in combination therapies with Interferon alpha, cyclosporine analogs and inhibitors targeting other HCV proteins. The acute effects of a single or combinations of drugs are studied in the “Huh-luc/neo-ET” replicon with each chemical agent titrated in an X or Y direction in a 6 point two-fold dilution curve centered around the EC50 of each drug. Briefly, replicon cells are seeded at 7,000 cells per well in 90 ul DMEM (without phenol red, Invitrogen Cat.#31053-036) per well with 10% FCS, 1% non-essential amino acids, 1% of Glutamax and 1% of 100× penicillin/streptomycin and incubated overnight at 37° C., 5% CO2, 100% relative humidity. […]

[1] = Table 11, qRT-PCR or luciferase assay, read-out: Genotype-1b replicon EC50 Range
[2] = Table 12, range class, read-out: 1b EC50 Range
[3] = Table 12, numeric values, read-out: 1b EC50

Compound | pEC50 [1] | further results
COC(=O)N[C@H](C(=O)N1CCC[C@H]1c1ncc(-c2ccc(C#Cc3ccc4nc([C@@H]5CCCN5C(=O)[C@@H](NC(=O)OC)C(C)(C)C)[nH]c4c3)cc2)[nH]1)C(C)C [Example 529] | > 9.00 | –
COC(=O)N[C@H](C(=O)N1CCC[C@H]1c1nc2cc(-c3ccc4cc(-c5c[nH]c([C@@H]6CCCN6C(=O)[C@@H](NC(=O)OC)[C@@H](C)OC)n5)ccc4c3)ccc2[nH]1)C(C)C [Example 464] | > 9.00 | –
COC(=O)N[C@H](C(=O)N1CCC[C@H]1c1ncc(-c2ccc([C@@H]3C[C@H]3c3ccc4nc([C@@H]5CCCN5C(=O)[C@@H](NC(=O)OC)C(C)C)[nH]c4c3)cc2)[nH]1)C(C)C [Example 497-b] | > 9.00 | –
COC(=O)N[C@H](C(=O)N1CCC[C@H]1c1nc2cc(C#Cc3ccc(-c4c[nH]c([C@@H]5CCCN5C(=O)[C@@H](NC(C)=O)C(C)C)n4)cc3)ccc2[nH]1)C(C)C [Example 511] | > 9.00 | –
COC(=O)N[C@H](C(=O)N1CCC[C@H]1c1nc(-c2ccc3cc(/C=C/c4ccc5[nH]c([C@@H]6CCCN6C(=O)[C@@H](NC(=O)OC)C(C)C)nc5c4)ccc3c2)c[nH]1)C(C)C [Example 477] | > 9.00 | –
CCC[C@H](NC(=O)OC)C(=O)N1CCC[C@H]1c1nc2cc(C#Cc3ccc(-c4c[nH]c([C@@H]5CCCN5C(=O)[C@@H](NC(=O)OC)C(C)C)n4)cc3)ccc2[nH]1 [Example 503] | > 9.00 | –
COC(=O)N[C@H](C(=O)N1CCC[C@H]1c1nc(-c2ccc3cc(-c4cc5nc([C@@H]6CCCN6C(=O)[C@@H](NC(=O)OC)C(C)C)[nH]c5cc4Cl)ccc3c2)c[nH]1)C(C)C [Example 490] | > 9.00 | –
CC[C@H](NC(=O)OC)C(=O)N1CCC[C@H]1c1nc2cc(C#Cc3ccc(-c4c[nH]c([C@@H]5CCCN5C(=O)[C@@H](NC(=O)OC)C(C)C)n4)cc3)ccc2[nH]1 [Example 502] | > 9.00 | –
COC(=O)N[C@H](C(=O)N1CCC[C@H]1c1ncc(-c2ccc(CCCc3ccc4[nH]c([C@@H]5CCCN5C(=O)[C@@H](NC(=O)OC)C(C)C)nc4c3)cc2)[nH]1)C(C)C [Example 449] | > 9.00 | –
COC(=O)N[C@H](C(=O)N1[C@@H]2C[C@@H]2C[C@H]1c1ncc(-c2ccc(C#Cc3ccc4nc([C@@H]5CC6(CC6)CN5C(=O)[C@H](NC(=O)OC)c5ccccc5)[nH]c4c3)cc2)[nH]1)C(C)C [Example 648] | – | pEC50 [2]: > 9.00
COC(=O)N[C@H](C(=O)N1CCC[C@H]1c1nc(-c2ccc3cc(-c4ccc5[nH]c([C@@H]6CCCN6C(=O)[C@H](NC(=O)OC)c6ccccc6)nc5c4)ccc3c2)c[nH]1)[C@@H](C)OC [Example 463] | > 9.00 | –
COC(=O)N[C@H](C(=O)N1CC2(CC2)C[C@H]1c1ncc(-c2ccc(C#Cc3ccc4nc([C@@H]5CC6(CC6)CN5C(=O)OC(C)(C)C)[nH]c4c3)cc2)[nH]1)C(C)C [Example 649] | – | pEC50 [3]: 9.52
COC(=O)N[C@H](C(=O)N1CCC[C@H]1c1nc2cc(-c3ccc4cc(-c5c[nH]c([C@@H]6CCCN6C(=O)[C@@H](NC(=O)OC)[C@@H](C)OC)n5)ccc4c3)ccc2[nH]1)[C@@H](C)O [Example 465] | > 9.00 | –
COC(=O)N[C@@H](C(=O)N1CCC[C@H]1c1ncc(-c2ccc(-c3ccc4[nH]c([C@@H]5CCCN5C(=O)[C@H](NC(=O)OC)c5ccccc5)nc4c3)cc2)[nH]1)c1ccccc1 [Example 2] | > 9.00 | –
COC(=O)N[C@H](C(=O)N1CCC[C@H]1c1nc(-c2ccc(CCc3ccc4[nH]c([C@@H]5CCCN5C(=O)[C@@H](NC(=O)OC)C(C)C)nc4c3)cc2)c[nH]1)C(C)C [Example 494] | > 9.00 | –
COC(=O)N[C@H](C(=O)N1CCC[C@H]1c1nc(-c2ccc(C#Cc3ccc4[nH]c([C@@H]5CCCN5C(=O)[C@H](NC(=O)OC)C(C)C)nc4c3)cc2)c[nH]1)C(C)C [Example 508] | > 9.00 | –

Compound | pEC50 [1] | further results
COC(=O)N[C@H](C(=O)N1CCC[C@H]1c1nc2cc(C#Cc3ccc(-c4c[nH]c([C@@H]5CCCN5C(=O)OC(C)(C)C)n4)cc3)ccc2[nH]1)C(C)C [Example 510] | > 9.00 | –
COC(=O)N[C@H](C(=O)N1CCC[C@H]1c1ncc(-c2ccc(C#Cc3ccc4nc([C@@H]5C[C@@]6(CC(C)=NO6)CN5C(=O)[C@@H](NC(=O)OC)C(C)C)[nH]c4c3)cc2)[nH]1)C(C)C [Example 623] | – | pEC50 [2]: > 9.00
COC(=O)N[C@H](C(=O)N1CCC[C@H]1c1ncc(-c2ccc(C#Cc3ccc4nc([C@@H]5C[C@@]6(CC=CCO6)CN5C(=O)[C@@H](NC(=O)OC)C(C)C)[nH]c4c3)cc2)[nH]1)C(C)C [Example 563] | – | pEC50 [3]: 10.92
CCC(NC(=O)OC)(C(=O)N1CCC[C@H]1c1nc2ccc(C#Cc3ccc(-c4cnc([C@@H]5CCCN5C(=O)[C@@H](NC(=O)OC)C(C)C)[nH]4)cc3)cc2[nH]1)c1ccccc1 (some centres unmarked) [Example 532] | > 9.00 | –
CC[C@H](C)[C@H](NC(=O)OC)C(=O)N1CCC[C@H]1c1nc2cc(-c3ccc4cc(-c5c[nH]c([C@@H]6CCCN6C(=O)[C@@H](NC(=O)OC)[C@@H](C)OC)n5)ccc4c3)ccc2[nH]1 [Example 466] | > 9.00 | –
COC(=O)N[C@H](C(=O)N1CCC[C@H]1c1nc(-c2ccc3cc(-c4ccc5[nH]c([C@@H]6CCCN6C(=O)[C@@H](NC(=O)OC)[C@@H](C)OC)nc5c4)ccc3c2)c[nH]1)[C@@H](C)OC [Example 460] | > 9.00 | –
COC(=O)N[C@H](C(=O)N1CCC[C@H]1c1ncc(-c2ccc3cc(-c4ccc5nc([C@@H]6C[C@H](C7CC7)CN6C(=O)[C@@H](NC(=O)OC)C(C)C)[nH]c5c4)ccc3c2)[nH]1)C(C)C [Example 642] | – | pEC50 [3]: 11.15
COC(=O)N[C@H](C(=O)N1CCC[C@H]1c1nc(-c2ccc(CCCc3ccc4[nH]c([C@@H]5CCCN5C(=O)[C@@H](NC(=O)OC)C(C)C)nc4c3)s2)c[nH]1)C(C)C [Example 457] | > 9.00 | –
COC(=O)N[C@H](C(=O)N1CCC[C@H]1c1nc2cc(C#Cc3ccc(-c4c[nH]c([C@@H]5CCCN5C(=O)[C@@H](c5ccccc5)C(C)C)n4)cc3)ccc2[nH]1)C(C)C [Example 512] | > 9.00 | –
COC(=O)N[C@H](C(=O)N1CC2(CC2)C[C@H]1c1nc2cc(C#Cc3ccc(-c4cn(O)c([C@@H]5CC6(CC6)CN5C(=O)[C@@H](NC(=O)OC)C(C)C)n4)cc3)ccc2[nH]1)C(C)C [Example 571] | – | pEC50 [3]: 10.89
COC(=O)N[C@H](C(=O)N1CCC[C@H]1c1nc2cc(C#Cc3ccc(-c4c[nH]c([C@@H]5CCCN5C(=O)[C@@H](NC(=O)OC)C(C)C)n4)cc3)ccc2[nH]1)c1ccccc1 [Example 509] | > 9.00 | –
COC(=O)N[C@H](C(=O)N1CCC[C@H]1c1ncc(-c2ccc(C#Cc3ccc4nc([C@@H]5C[C@@H](Oc6ccccc6)CN5C(=O)[C@@H](NC(=O)OC)C(C)C)[nH]c4c3)cc2)[nH]1)C(C)C [Example 537] | > 9.00 | –
COC(=O)N[C@H](C(=O)N1CCC[C@H]1c1nc(-c2ccc(OCc3ccc4[nH]c([C@@H]5CCCN5C(=O)[C@@H](NC(=O)OC)C(C)C)nc4c3)cc2)c[nH]1)C(C)C [Example 451] | > 9.00 | –
COC(=O)N[C@@H](C(=O)N1CCC[C@H]1c1nc2ccc(CCc3ccc(-c4cnc([C@@H]5CCCN5C(=O)[C@H](NC(=O)OC)c5ccccc5)o4)cc3)cc2[nH]1)c1ccccc1 [Example 534] | > 9.00 | –
COC(=O)N[C@H](C(=O)N1CCC[C@H]1c1nc(-c2ccc(/C=C/c3ccc4[nH]c([C@@H]5CCCN5C(=O)[C@@H](NC(=O)OC)C(C)C)nc4c3)cc2)c[nH]1)C(C)C [Example 492] | > 9.00 | –
COC(=O)N[C@H](C(=O)N1CCC[C@H]1c1nc(-c2ccc(C#Cc3ccc4[nH]c([C@@H]5CCCN5C(=O)[C@H](NC(=O)OC)c5ccccc5)nc4c3)cc2)c[nH]1)C(C)C [Example 504] | > 9.00 | –
